According to patent publication US5952511A, “Indolin-2-one derivatives” (Chugai Seiyaku Kabushiki Kaisha, priority 1993, dated 1999):

What was measured:
[1] = molecular target: T1, gastrin receptors (guinea pig gastric glands) (Cavia porcellus, UniProt H0VZC5); assay: Gastrin Receptor Binding Test in Guinea Pig Gastric Glands (Test Example 1); parameters: species or system guinea pig (Hartley, male); conditions: inhibition of specific 125I-gastrin I human binding (22.5 pM), 25° C., 45 min
T1 construct: The gastric glands were isolated from the tissue with a pipette; from tissue; host or cells: isolated gastric glands from gastric mucosa of Hartley male guinea pigs
T1 sequence (H0VZC5 1-426): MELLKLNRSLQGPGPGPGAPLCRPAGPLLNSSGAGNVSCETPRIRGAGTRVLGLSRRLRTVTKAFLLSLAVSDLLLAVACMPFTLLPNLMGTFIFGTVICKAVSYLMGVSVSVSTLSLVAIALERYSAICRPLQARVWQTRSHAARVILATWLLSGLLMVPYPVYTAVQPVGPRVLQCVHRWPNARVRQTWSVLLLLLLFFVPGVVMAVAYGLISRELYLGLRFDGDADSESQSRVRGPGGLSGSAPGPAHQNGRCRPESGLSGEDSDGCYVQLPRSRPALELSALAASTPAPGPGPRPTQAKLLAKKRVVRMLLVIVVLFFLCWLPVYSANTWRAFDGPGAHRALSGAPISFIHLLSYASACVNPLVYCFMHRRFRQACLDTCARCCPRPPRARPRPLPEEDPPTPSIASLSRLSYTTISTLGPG
Experimental: Gastrin Receptor Binding Test in Guinea Pig Gastric Glands
Preparation of Gastric Glands:
Guinea pig gastric glands were prepared according to the method of Chang, et al., Biochem. Biophys. Res. Commun., 134, 895 (1986). The gastric mucosa of a Hartley male guinea pig was peeled off. After washing, the mucosa was minced with scissors in buffer A (Eagle's MEM containing 2 mM L-glutamine and 25 mM HEPES; pH 7.4). After washing, the minced tissue was incubated in buffer A containing 0.025% collagenase, 0.01% soy bean trypsin inhibitor, and 0.1% BSA at 37° C. for 60 minutes under 95% O2 and 5% CO2. The gastric glands were isolated from the tissue with a pipette, washed twice with buffer A, and filtered through a mesh. Then, the gastric glands were obtained by centrifugation.
Guinea pig gastric glands were resuspended in buffer B (Hank's solution containing 10 mM HEPES and 0.2% BSA; pH 7.4) (10 ml of buffer B per guinea pig).
To 200 μl of the suspension containing the resuspended isolated gastric glands were added 20 μl of ^125 I-gastrin I human (final concentration: 22.5 pM). Then, 10 μl of a test compound or a solvent (for total binding) or 10 μM Pentagastrin (for nonspecific binding), and buffer B was added there to make a total volume of 1 ml. The reaction mixture was incubated at 25° C. for 45 minutes and then centrifuged at 12000 g. The supernatant was removed by suction, and the radioactivity of the isolated gastric glands was measured with a gamma-counter.
The specific binding of gastrin to gastrin receptors was obtained from a difference between the total binding and the nonspecific binding. The IC50 of the test compound in inhibition of specific binding was calculated.

gastric acid secretion = assay: Inhibitory Activity on Gastric Acid Secretion in Pylorus Ligated Rats (Test Example 2); type: in vivo, rat (Sprague-Dawley, male); conditions: Rattus norvegicus, intraduodenal, i.d., 4 h
Experimental: Inhibitory Activity on Gastric Acid Secretion in Pyrolus Ligated Rats
Sprague-Dawley male rats weighing about 200 g were deprived of food for 24 hours while allowed water ad libitum. The abdomen was opened under anesthesia with ethyl ether, the pyrolus ligated, and the abdomen closed. The rats were deprived of food and water for 4 hours until they were surcrified with ethyl ether. The stomach was removed, and gastric juice was collected and measured. The gastric juice was centrifuged at 3000 rpm, and the supernatant was titrated up to pH 7.0 with 0.1N NaOH solution to obtain the acidity of the gastric juice. The amount of the gastric acid output was calculated by multiplying the gastric juice volume by the acidity, and the percent inhibition of acid secretion was obtained according to the following equation. A test compound, suspended in a 3% gum arabic solution, was administered intraduodenally at a dose of 2 ml/kg immediately after the pyrolus ligation.
Inhibition (%)=[(Average amount of gastric acid output in control group--Average amount of gastric acid output in test group)/Average amount of gastric acid secreted […]]×100

Structure (SMILES)	IC50 [1]	inhibition in vivo at 10 mg/kg (gastric acid secretion)	inhibition in vivo at 3 mg/kg (gastric acid secretion; 3 mg/kg)
CCOC(CN1C(=O)C(CC(=O)Nc2ccc(C)cc2)(NC(=O)Nc2ccc(OC)cc2)c2ccccc21)OCC (racemic) [Example 79, (RS)-1-(2,2-Diethoxyethyl)-3-(N'-(4-methoxyphenyl)ureido)-3-((4-methylphenyl)aminocarbonylmethyl)indolin-2-one]	1.9 nM	47%	
CCOC(CN1C(=O)C(CC(=O)Nc2ccc(C)cc2)(NC(=O)Nc2cccc(C)c2)c2ccccc21)OCC (racemic) [Example 81, (RS)-1-(2,2-Diethoxyethyl)-3-((4-methylphenyl)aminocarbonylmethyl)-3-(N'-(3-methylphenyl)ureido)indolin-2-one]	1.6 nM	59%	
CCOC(CN1C(=O)C(CC(=O)Nc2ccc(C)cc2)(NC(=O)Nc2ccc(F)cc2)c2ccccc21)OCC (racemic) [Example 82, (RS)-1-(2,2-Diethoxyethyl)-3-(N'-(4-fluorophenyl)ureido)-3-((4-methylphenyl)aminocarbonylmethyl)indolin-2-one]	6.2 nM	56%	
CCOC(CN1C(=O)C(CC(=O)Nc2ccc(C)cc2)(NC(=O)Nc2cccc(F)c2)c2ccccc21)OCC (racemic) [Example 94, (RS)-1-(2,2-Diethoxyethyl)-3-(N'-(3-fluorophenyl)ureido)-3-((4-methylphenyl)aminocarbonylmethyl)indolin-2-one]	3.5 nM	70%	
CCOC(CN1C(=O)C(CC(=O)Nc2ccc(N)cc2)(NC(=O)Nc2ccc(C)cc2)c2ccccc21)OCC (racemic) [Example 125, (RS)-3-((4-Aminophenyl)aminocarbonylmethy)-1-(2,2-diethoxyethyl)-3-(N'-(4-methylphenyl)ureido)indolin-2-one]	2.5 nM	54%	
CCOC(CN1C(=O)C(CC(=O)Nc2ccc(N(C)C(=O)C(F)(F)F)cc2)(NC(=O)Nc2ccc(C)cc2)c2ccccc21)OCC (racemic) [Example 131, (RS)-1-(2,2-Diethoxyethyl) 3-((4-(N-trifluoromethylcarbonyl-N-methylamino)phenyl)aminocarbonylmethyl)-3-(N'-(4-methylphenyl)ureido)indolin-2-one]	23 nM	65%	
CCOC(CN1C(=O)C(CC(=O)Nc2ncccn2)(NC(=O)Nc2ccc(C)cc2)c2ccccc21)OCC (racemic) [Example 132, (RS)-1-(2,2-Diethoxyethyl)-3-(N'-(4-methylphenyl)ureido)-3-((2-pyrimidinyl)aminocarbonylmethyl)indolin-2-one]	8.9 nM	52%	
CCOC(CN1C(=O)C(CC(=O)Nc2ccc(OC)cc2)(NC(=O)Nc2cccc(OC)c2)c2ccccc21)OCC (racemic) [Example 148, (RS)-1-(2,2-Diethoxyethyl)-3-((4-methoxyphenyl)aminocarbonylmethyl)-3-(N'-(3-methoxyphenyl)ureido)indolin-2-one]	1.1 nM	63%	
CCOC(CN1C(=O)C(CC(=O)Nc2ccc(Cl)cc2)(NC(=O)Nc2ccc(OC)cc2)c2ccccc21)OCC (racemic) [Example 169, (RS)-3-(-(4-Chlorophenyl)aminocarbonylmethyl)-1-(2,2-diethoxyethyl)-3-(N'-(4-methoxyphenyl)ureido)indolin-2-one]	1.9 nM	52%	
CCOC(CN1C(=O)C(CC(=O)Nc2ccc(C)cc2)(NC(=O)Nc2cccc(OC)c2)c2ccccc21)OCC (single isomer, unassigned; (+)) [Example 188, (+)-1-(2,2-Diethoxyethyl)-3-(4-methylphenyl)aminocarbonylmethyl-3-(N'-(3-methoxyphenyl)ureido)indolin-2-one]	0.35 nM		76%

Further compounds by falling IC50 [1], results first:

IC50 [1]	Structure (SMILES)	inhibition in vivo at 10 mg/kg (gastric acid secretion)	inhibition in vivo at 3 mg/kg (gastric acid secretion; 3 mg/kg)
5.8 nM	CCOC(CN1C(=O)C(CC(=O)Nc2ccc(C)cc2)(NC(=O)Nc2cccc(Cl)c2)c2ccccc21)OCC (racemic) [Example 89, (RS)-3-(N'-(3-Chlorophenyl)ureido)-1-(2,2-diethoxyethyl)-3-((4-methylphenyl)aminocarbonylmethyl)indolin-2-one]	65%	
5.3 nM	CCOC(CN1C(=O)C(CC(=O)Nc2ccc(F)cc2)(NC(=O)Nc2ccc(C)cc2)c2ccccc21)OCC (racemic) [Example 124, (RS)-1-(2,2-Diethoxyethyl)-3-((4-fluorophenyl)aminocarbonylmethyl)-3-(N'-(4-methylphenyl)ureido)indolin-2-one]	54%	
5.1 nM	CCOC(CN1C(=O)C(CC(=O)Nc2ccc(F)cc2)(NC(=O)Nc2ccc(F)cc2)c2ccccc21)OCC (racemic) [Example 170, (RS)-1-(2,2-Diethoxyethyl)-3-((4-fluorophenyl)aminocarbonylmethyl)-3-(N'-(4-fluorophenyl)ureido)indolin-2-one]	63%	
3.4 nM	CCOC(CN1C(=O)C(CC(=O)Nc2ccc(C)cc2)(NC(=O)Nc2ccccc2)c2ccccc21)OCC (racemic) [Example 84, (RS)-1-(2,2-Diethoxyethyl)-3-((4-methylphenyl)aminocarbonylmethyl)-3-(N'-phenylureido)indolin-2-one]	68%	
2.9 nM	CCOC(CN1C(=O)C(CC(=O)Nc2cccc(OC)c2)(NC(=O)Nc2cccc(OC)c2)c2ccccc21)OCC (racemic) [Example 151, (RS)-1-(2,2-Diethoxyethyl)-3-((3-methoxyphenyl)aminocarbonylmethyl)-3-(N'-(3-methoxyphenyl)ureido)indolin-2-one]	62%	
2.6 nM	CCOC(CN1C(=O)C(CC(=O)Nc2ccc(Cl)cc2)(NC(=O)Nc2ccc(Cl)cc2)c2ccccc21)OCC (racemic) [Example 168, (RS)-3-((4-Chlorophenyl)aminocarbonylmethyl)-3-(N'-(4-chlorophenyl)ureido)-1-(2,2-diethoxyethyl)indolin-2-one]	61%	
2.1 nM	CCOC(CN1C(=O)C(CC(=O)Nc2cccc(C)c2)(NC(=O)Nc2cccc(OC)c2)c2ccccc21)OCC (racemic) [Example 152, (RS)-1-(2,2-Diethoxyethyl)-3-(N'-(3-methoxyphenyl)ureido)-3-((3-methylphenyl)aminocarbonylmethyl)indolin-2-one]	64%	
1.2 nM	CCOC(CN1C(=O)C(CC(=O)Nc2ccc(C)cc2)(NC(=O)Nc2cccc(OC)c2)c2ccccc21)OCC (racemic) [Example 85, (RS)-1-(2,2-Diethoxyethyl)-3-(N'-(3-methoxyphenyl)ureido)-3-((4-methylphenyl)aminocarbonylmethyl)indolin-2-one]	72%	
1 nM	CCOC(CN1C(=O)C(CC(=O)Nc2ccc(F)cc2)(NC(=O)Nc2cccc(OC)c2)c2ccccc21)OCC (racemic) [Example 154, (RS)-1-(2,2-Diethoxyethyl)-3-((4-fluorophenyl)aminocarbonylmethyl)-3-(N'-(3-methoxyphenyl)ureido)indolin-2-one]	59%	
0.93 nM	CCOC(CN1C(=O)C(CC(=O)Nc2ccc(Cl)cc2)(NC(=O)Nc2cccc(OC)c2)c2ccccc21)OCC (racemic) [Example 149, (RS)-3-((4-Chlorophenyl)aminocarbonylmethyl)-1-(2,2-diethoxyethyl)-3-(N'-(3-methoxyphenyl)ureido)indolin-2-one]	69%	
